From PubChem BioAssay AID1552 (Sanford-Burnham Center for Chemical Genomics, 2009)
Calls of active or inactive are those of the source. No rule for the calls is given here.

Each compound was assayed against Ubiquitin-conjugating enzyme E2 N (Homo sapiens) (UniProt P61088) (assay: NMR detection of UBE2N ligand binding – biophysical, purified protein (AID 1552)). Conditions: NMR binding to purified UBE2N.
Chain of Ubiquitin-conjugating enzyme E2 N (Homo sapiens) (P61088 whole entry, looked up): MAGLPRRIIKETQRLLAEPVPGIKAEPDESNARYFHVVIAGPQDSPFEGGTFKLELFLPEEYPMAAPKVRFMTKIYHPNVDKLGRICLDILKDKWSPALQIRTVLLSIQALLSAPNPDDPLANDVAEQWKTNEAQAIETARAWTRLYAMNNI

SMILES	Kd
Cc1ccccc1NC(=O)CSc1ccnc(=O)[nH]1	> 4 mM (inactive)
CCOC(=O)c1snnc1-c1ccccc1	> 4 mM (inactive)
O=C(Nc1ccon1)c1sc2cc(F)ccc2c1Cl	> 4 mM (inactive)
NC(=O)c1cc(N)cc(C(N)=O)c1	> 4 mM (inactive)
Cc1nnc2sc(-c3csc4c3CCCC4)nn12	> 4 mM (inactive)
CCOC(=O)N1CCCC1c1cccnc1 (stereo unspecified)	> 4 mM (inactive)
CCc1ccccc1OCc1nnc(N)s1	> 4 mM (inactive)
OCc1ccc(Oc2ccccc2)nc1	> 4 mM (inactive)
O=C(Nc1ccon1)c1cccc(C(F)(F)F)c1	> 4 mM (inactive)
Nc1[nH]c(=S)[nH]c(=O)c1-c1ccccc1	> 4 mM (inactive)
Cc1cc(C(=O)Nc2sc3c(c2C#N)CCC3)no1	> 4 mM (inactive)
Nc1cncc(C(=O)O)c1	> 4 mM (inactive)
O=C(Nc1ncccn1)c1cccc(F)c1	> 4 mM (inactive)
COc1ccc(-c2cc(=O)c3c(O)cc(O)c(-c4cc(-c5cc(=O)c6c(O)cc(O)cc6o5)ccc4OC)c3o2)cc1	> 4 mM (inactive)
CC(=O)N1CN(C(C)=O)CN(C(C)=O)C1	> 4 mM (inactive)
O=C(NC(=S)NCc1cccnc1)c1ccco1	> 4 mM (inactive)
COC(=O)c1noc(-c2ccc(OC)cc2)n1	> 4 mM (inactive)
CCOc1cc(S(=O)(=O)n2nc(C)cc2C)ccc1F	> 4 mM (inactive)
Nc1ncnc2c1ncn2C1C[C@H](O)[C@@H](CO)O1 (stereo partly specified)	> 4 mM (inactive)
COc1cccc(OC)c1C(=O)N1CCOCC1	> 4 mM (inactive)
CCN=Cc1c(O)n(-c2ccccc2C)c(=O)[nH]c1=O	> 4 mM (inactive)
NCc1nnnn1-c1ccccc1	> 4 mM (inactive)

SMILES	Kd
COc1cnn(-c2ccccc2)c(=O)c1N(C)C	> 4 mM (inactive)
NCc1cccc2c1OCCO2	> 4 mM (inactive)
Nc1ccccc1-n1cccn1	> 4 mM (inactive)
CN(C)N1C(=O)C2C3C=CC(O3)C2C1=O (stereo unspecified)	> 4 mM (inactive)
CC(=O)OC1CCC23C(=O)OC45CCC(C6=CC(=O)OC6)C4(C)CCC2C5CCC3(O)C1 (stereo unspecified)	> 4 mM (inactive)
O=c1[nH]c2c(c(=O)n1C1CCCCC1)CCC2	> 4 mM (inactive)
Cn1c(=O)n(C)c2nc([N+](=O)[O-])c(Cl)cc21	> 4 mM (inactive)
Cc1nc(-c2ccc(C(=O)O)s2)cs1	> 4 mM (inactive)
CSCCNC(C)=O	> 4 mM (inactive)
O=C1CC[C@]23/C=C/C(=O)NCCCCNCCCNC(=O)/C=C/c4ccc(c2c4)O[C@@H]3C1	> 4 mM (inactive)
Cc1ccc(CCC(N)=O)o1	> 4 mM (inactive)
Cc1cccc(-n2c(N)cc(=O)[nH]c2=S)c1C	> 4 mM (inactive)
O=C(O)C1CCN(C(=O)c2cccs2)CC1	> 4 mM (inactive)
CC(C)(C)C(=O)Nc1nnc(SCC(N)=O)s1	> 4 mM (inactive)
CC(=O)c1cccc(NC(=O)C=C(C)C)c1	> 4 mM (inactive)
O=C(O)CCc1ccc2c(c1)OCO2	> 4 mM (inactive)
O=C(O)C1CSC(c2ccco2)N1 (stereo unspecified)	> 4 mM (inactive)
O=C1CC(N2CCC(O)CC2)C(=O)N1c1ccc(F)cc1 (stereo unspecified)	> 4 mM (inactive)
COC(=O)c1cc(C)on1	> 4 mM (inactive)
CCN1CCc2c(sc(N)c2C#N)C1	> 4 mM (inactive)
NC(=O)Nc1cccc(C(F)(F)F)c1	> 4 mM (inactive)
COc1cnn(Cc2ccccc2)c(=O)c1Cl	> 4 mM (inactive)

SMILES	Kd
O=C(O)C1Cc2c([nH]c3ccccc23)CN1 (stereo unspecified)	> 4 mM (inactive)
Nc1cc(C(F)(F)F)ccc1N1CCOCC1	> 4 mM (inactive)
O=c1c(O)cc([C@H]2Oc3cc(O)cc(O)c3C[C@H]2O)cc2c([C@H]3Oc4cc(O)cc(O)c4C[C@H]3O)cc(O)c(O)c12	> 4 mM (inactive)
CC(=O)Nc1cccc(-c2nnc(-c3ccccc3)o2)c1	> 4 mM (inactive)
[O-][n+]1onc2c1CCc1c-2nc(-c2ccccc2)n1O	> 4 mM (inactive)
CC1(C)C(=O)C=C[C@@]2(C)C1C=C[C@]1(C)C2CC[C@@]2(C)[C@H](c3ccoc3)OC(=O)C3OC321 (stereo partly specified)	> 4 mM (inactive)
COC(=O)Nc1nc2c(C)cccc2s1	> 4 mM (inactive)
COc1cc(C(=S)N2CCC(C(N)=O)CC2)ccc1O	> 4 mM (inactive)
Oc1cc(O)c2c(c1)O[C@H](c1ccc(O)c(O)c1)[C@@H](O)C2	> 4 mM (inactive)
COc1cc(S(=O)(=O)Nc2cccnc2)ccc1F	> 4 mM (inactive)
Cc1occc1C(=O)N1CCN(S(C)(=O)=O)CC1	> 4 mM (inactive)
O=C(O)CNS(=O)(=O)c1cccs1	> 4 mM (inactive)
O=C(O)C1NCCc2ccccc21 (stereo unspecified)	> 4 mM (inactive)
Cc1c(/C=N\n2cnnc2)c2ccccc2n1C	> 4 mM (inactive)
CN(C)c1oc(-c2ccccc2Cl)nc1C#N	> 4 mM (inactive)
CCn1nnnc1Oc1ccc(Cl)cc1	> 4 mM (inactive)
O=C(NN=C1CCCC1)c1ccncc1	> 4 mM (inactive)
COc1ccc2c(c1)c1n[nH]c(=S)nc1n2C	> 4 mM (inactive)
O=c1cccc2n1C[C@H]1CNCC2C1	> 4 mM (inactive)
Nc1ccc(Cc2ccncc2)cc1	> 4 mM (inactive)
Nc1csc(C(=O)O)c1	> 4 mM (inactive)
NCc1csc(-c2cccs2)n1	> 4 mM (inactive)

SMILES	Kd
CC(=O)Nc1ccc(NC(=O)c2ccncc2)cc1	> 4 mM (inactive)
Nc1cccc(C(=O)Nc2ccc(N)cc2Cl)c1	> 4 mM (inactive)
COc1cc(/C=C2/NC(=S)NC2=O)cc(Cl)c1O	> 4 mM (inactive)
CC1CN(Cc2ccccn2)CCC1=O (stereo unspecified)	> 4 mM (inactive)
O=C1CS/C(=N/N=C2CCCC2)N1	> 4 mM (inactive)
Brc1ccc(-c2nc(-c3ccncc3)no2)o1	> 4 mM (inactive)
COc1ccc(-c2cn[nH]c2N)c(OC)c1	> 4 mM (inactive)
NC(=O)CCn1c(=O)oc2ccccc21	> 4 mM (inactive)
C[C@H]1[C@H](C)CC[C@]2(C(=O)O)CC[C@]3(C)C(=CCC4[C@@]5(C)C[C@@H](O)[C@H](O)[C@@](C)(CO)C5[C@H](O)C[C@]43C)[C@H]12 (stereo partly specified)	> 4 mM (inactive)
Cc1ccc2cc(N)ccc2n1	> 4 mM (inactive)
CCOC(=O)Cc1nc2ccccc2[nH]1	> 4 mM (inactive)
O=C(CS(=O)(=O)c1ccccc1)N1CCCCCC1	> 4 mM (inactive)
COc1ccc(C)cc1S(=O)(=O)Nc1ccccc1C	> 4 mM (inactive)
O=C(Nc1cnccn1)c1ccncc1	> 4 mM (inactive)
Cc1[nH]c2ccccc2c1Cc1n[nH]c(=S)n1C	> 4 mM (inactive)
CC(=O)O[C@H]1C[C@@H](OC(C)=O)C(C)(C)C2C[C@@H](OC(C)=O)[C@]3(C)C(CC[C@@]4(C)[C@H](c5ccoc5)OC(=O)[C@H]5O[C@]543)[C@]21C (stereo partly specified)	> 4 mM (inactive)
O=C(O)c1cccc2c1OCCCO2	> 4 mM (inactive)
Cc1c(F)cccc1NS(=O)(=O)c1ccccc1C#N	> 4 mM (inactive)
O=C(O)c1cc2ccccc2o1	> 4 mM (inactive)
O=C(Nc1ccccc1C(F)(F)F)N1CCCCCC1	> 4 mM (inactive)
